Experimental data reported in the supplement of paper PMC10307832.

Key:
Assay in all cases: relative viability (nuclei count vs DMSO), 5 days (fraction); higher = more cells survive
[1] = compound: CN(C)CC1=CC(=CC=C1)N=C(C2=CC=CC=C2)C3=C(NC4=C3C=CC(=C4)C(=O)N(C)C)O + Cc1nc(Nc2ncc(C(=O)Nc3c(C)cccc3Cl)s2)cc(N2CCN(CCO)CC2)n1 [Dasatinib] (partner 0.075 µM)
Outline: (§1)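 Lung cancer cell lines in 1536-well plates were dosed by pin tool the day after seeding, either with one drug alone or with a fixed anchor-drug dose plus five library-drug doses (not always all listed) in √10 steps. After 5 days, cells were fixed and their nuclei stained in one step (final 0.05% Triton X-100, 1% formaldehyde, 1 ug/ml Hoechst), then counted on 4× images. Relative viability is the nuclei count in treated wells divided by that in vehicle wells. Values are medians of duplicate plates.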

[2] = compound: CN(C)CC1=CC(=CC=C1)N=C(C2=CC=CC=C2)C3=C(NC4=C3C=CC(=C4)C(=O)N(C)C)O + CC(=O)c1c(C)c2cnc(Nc3ccc(N4CCNCC4)cn3)nc2n(C2CCCC2)c1=O [Palbociclib] (partner 0.5 µM)
Outline: as §1

[3] = compound: CN(C)CC1=CC(=CC=C1)N=C(C2=CC=CC=C2)C3=C(NC4=C3C=CC(=C4)C(=O)N(C)C)O + CC(C)C[C@H](NC(=O)[C@H](Cc1ccccc1)NC(=O)c1cnccn1)B(O)O [Bortezomib] (partner 0.002 µM)
Outline: as §1

[4] = compound: CN(C)CC1=CC(=CC=C1)N=C(C2=CC=CC=C2)C3=C(NC4=C3C=CC(=C4)C(=O)N(C)C)O + CCNC(=O)c1noc(-c2cc(C(C)C)c(O)cc2O)c1-c1ccc(CN2CCOCC2)cc1 [Luminespib] (partner 0.01 µM)
Outline: as §1

| Cell Line | relative viability ([1]; first compound 0.08 µM) | relative viability ([1]; first compound 0.253 µM) | relative viability ([1]; first compound 0.8 µM) | relative viability ([1]; first compound 2.53 µM) | relative viability ([1]; first compound 8 µM) | relative viability ([2]; first compound 0.08 µM) | relative viability ([2]; first compound 0.253 µM) | relative viability ([2]; first compound 0.8 µM) | relative viability ([2]; first compound 2.53 µM) | relative viability ([2]; first compound 8 µM) | relative viability ([3]; first compound 0.08 µM) | relative viability ([3]; first compound 0.253 µM) | relative viability ([3]; first compound 0.8 µM) | relative viability ([3]; first compound 2.53 µM) | relative viability ([3]; first compound 8 µM) | relative viability ([4]; first compound 0.08 µM) | relative viability ([4]; first compound 0.253 µM) | relative viability ([4]; first compound 0.8 µM) | relative viability ([4]; first compound 2.53 µM) | relative viability ([4]; first compound 8 µM) |
| --- | --- | --- | --- | --- | --- | --- | --- | --- | --- | --- | --- | --- | --- | --- | --- | --- | --- | --- | --- | --- |
| NCI-H647 | 0.201 | 0.235 | 0.173 | 0.195 | 0.111 | 0.431 | 0.433 | 0.471 | 0.45 | 0.382 | 1.02 | 1.01 | 1.01 | 0.846 | 0.776 | 0.103 | 0.133 | 0.227 | 0.199 | 0.184 |
| COR-L 105 | 0.394 | 0.369 | 0.307 | 0.314 | 0.328 | 0.407 | 0.4 | 0.362 | 0.379 | 0.407 | 0.767 | 0.889 | 0.586 | 0.761 | 0.753 | 0.865 | 0.688 | 0.567 | 1.23 | 0.622 |
| H3255 | 0.342 | 0.337 | 0.316 | 0.381 | 0.339 | 0.304 | 0.331 | 0.336 | 0.334 | 0.343 | 0.779 | 0.893 | 0.752 | 0.822 | 0.94 | 0.899 | 0.894 | 0.751 | 0.836 | 0.998 |
| LOU-NH91 | 0.572 | 0.552 | 0.485 | 0.539 | 0.503 | 0.57 | 0.53 | 0.524 | 0.52 | 0.598 | 0.493 | 0.472 | 0.447 | 0.533 | 0.472 | 0.308 | 0.32 | 0.358 | 0.337 | 0.322 |
| NCI-H322M | 0.253 | 0.266 | 0.251 | 0.247 | 0.252 | 0.448 | 0.48 | 0.45 | 0.442 | 0.432 | 1.25 | 1.14 | 1.19 | 1.16 | 1.26 | 0.808 | 0.864 | 0.62 | 0.707 | 0.532 |
| SK-LU-1 | 0.185 | 0.199 | 0.188 | 0.196 | 0.163 | 0.335 | 0.363 | 0.34 | 0.362 | 0.369 | 0.94 | 1.17 | 1.16 | 1.13 | 1.01 | 0.226 | 0.191 | 0.21 | 0.188 | 0.225 |
| HCC-15 | 0.613 | 0.602 | 0.652 | 0.643 | 0.662 | 0.706 | 0.724 | 0.74 | 0.711 | 0.752 | 0.984 | 0.956 | 1.08 | 1.03 | 1.12 | 0.304 | 0.205 | 0.181 | 0.278 | 0.279 |
| NCI-H1651 | 0.414 | 0.459 | 0.443 | 0.284 | 0.386 | 0.526 | 0.505 | 0.554 | 0.521 | 0.494 | 0.959 | 0.984 | 0.957 | 0.794 | 0.932 | 0.892 | 0.782 | 0.894 | 0.639 | 0.87 |
| NCI-H23 | 0.739 | 0.933 | 0.916 | 0.823 | 0.849 |  | 0.655 | 0.556 | 0.579 | 0.478 | 1.08 | 1.02 | 1.18 | 0.951 | 0.833 | 0.21 | 0.203 | 0.196 | 0.242 | 0.243 |
| NCI-H1355 | 0.776 | 0.776 | 0.538 | 0.82 | 0.737 | 0.425 | 0.399 | 0.305 | 0.4 | 0.4 | 1.24 | 1.26 | 1.11 | 1.28 | 1.08 | 0.687 | 0.713 | 0.735 | 0.764 | 0.66 |
| NCI-H2085 | 0.226 | 0.285 | 0.257 | 0.252 | 0.278 | 0.452 | 0.492 | 0.476 | 0.5 | 0.559 | 1.07 | 0.953 | 0.993 | 1.01 | 1.07 | 0.591 | 0.533 | 0.477 | 0.527 | 0.404 |
